In ChEMBL document CHEMBL3046781, “Resistance of Helicoverpa assulta (Guenée) (Lepidoptera: Noctuidae) to fenvalerate, phoxim and methomyl in China” (2009):

Legend:
Type in all cases: functional
[1] = system: Helicoverpa assulta; assay: Resistance factor, ratio of LD50 for sixth-instar larvae of Helicoverpa assulta AH1 to LD50 for sixth-instar larvae of Helicoverpa assulta at 39 to 12630 mg/l
[2] = system: Helicoverpa assulta; assay: Resistance factor, ratio of LD50 for sixth-instar larvae of Helicoverpa assulta SD2 to LD50 for sixth-instar larvae of Helicoverpa assulta at 39 to 12630 mg/l
[3] = system: Helicoverpa assulta; assay: Insecticidal activity against sixth-instar larvae of Helicoverpa assulta YN2 at 39 to 12630 mg/l after 48 hr by chi-squared analysis
[4] = system: Helicoverpa assulta; assay: Insecticidal activity against sixth-instar larvae of Helicoverpa assulta AH3 at 39 to 12630 mg/l after 48 hr by chi-squared analysis
[5] = system: Helicoverpa assulta; assay: Insecticidal activity against sixth-instar larvae of Helicoverpa assulta YN6 at 39 to 12630 mg/l after 48 hr by chi-squared analysis
[6] = system: Helicoverpa assulta; assay: Insecticidal activity against sixth-instar larvae of Helicoverpa assulta YN4 at 39 to 12630 mg/l after 48 hr by chi-squared analysis
[7] = system: Helicoverpa assulta; assay: Resistance factor, ratio of LD50 for sixth-instar larvae of Helicoverpa assulta YN6 to LD50 for sixth-instar larvae of Helicoverpa assulta at 39 to 12630 mg/l
[8] = system: Helicoverpa assulta; assay: Insecticidal activity against sixth-instar larvae of Helicoverpa assulta FJ3 at 39 to 12630 mg/l after 48 hr by chi-squared analysis
[9] = system: Helicoverpa assulta; assay: Resistance factor, ratio of LD50 for sixth-instar larvae of Helicoverpa assulta FJ2 to LD50 for sixth-instar larvae of Helicoverpa assulta at 39 to 12630 mg/l
[10] = system: Helicoverpa assulta; assay: Insecticidal activity against sixth-instar larvae of Helicoverpa assulta AH2 at 39 to 12630 mg/l after 48 hr by chi-squared analysis
[11] = system: Helicoverpa assulta; assay: Resistance factor, ratio of LD50 for sixth-instar larvae of Helicoverpa assulta YN5 to LD50 for sixth-instar larvae of Helicoverpa assulta at 39 to 12630 mg/l
[12] = system: Helicoverpa assulta; assay: Insecticidal activity against sixth-instar larvae of Helicoverpa assulta at 39 to 12630 mg/l after 48 hr by chi-squared analysis
[13] = system: Helicoverpa assulta; assay: Insecticidal activity against sixth-instar larvae of Helicoverpa assulta YN6 at 1.8 to 183360 mg/l after 48 hr by chi-squared analysis
[14] = system: Helicoverpa assulta; assay: Insecticidal activity against sixth-instar larvae of Helicoverpa assulta HB1 at 1.8 to 183360 mg/l after 48 hr by chi-squared analysis
[15] = system: Helicoverpa assulta; assay: Resistance factor, ratio of LD50 for sixth-instar larvae of Helicoverpa assulta GZ5 to LD50 for sixth-instar larvae of Helicoverpa assulta at 1.8 to 183360 mg/l
[16] = system: Helicoverpa assulta; assay: Resistance factor, ratio of LD50 for sixth-instar larvae of Helicoverpa assulta YN4 to LD50 for sixth-instar larvae of Helicoverpa assulta at 1.8 to 183360 mg/l
[17] = system: Helicoverpa assulta; assay: Resistance factor, ratio of LD50 for sixth-instar larvae of Helicoverpa assulta YN7 to LD50 for sixth-instar larvae of Helicoverpa assulta at 1.8 to 183360 mg/l
[18] = system: Helicoverpa assulta; assay: Resistance factor, ratio of LD50 for sixth-instar larvae of Helicoverpa assulta YN5 to LD50 for sixth-instar larvae of Helicoverpa assulta at 1.8 to 183360 mg/l
[19] = system: Helicoverpa assulta; assay: Insecticidal activity against sixth-instar larvae of Helicoverpa assulta AH1 at 1.8 to 183360 mg/l after 48 hr by chi-squared analysis
[20] = system: Helicoverpa assulta; assay: Insecticidal activity against sixth-instar larvae of Helicoverpa assulta GZ2 at 1.8 to 183360 mg/l after 48 hr by chi-squared analysis
[21] = system: Helicoverpa assulta; assay: Resistance factor, ratio of LD50 for sixth-instar larvae of Helicoverpa assulta FJ3 to LD50 for sixth-instar larvae of Helicoverpa assulta at 1.8 to 183360 mg/l
[22] = system: Helicoverpa assulta; assay: Resistance factor, ratio of LD50 for sixth-instar larvae of Helicoverpa assulta GZ2 to LD50 for sixth-instar larvae of Helicoverpa assulta at 1.8 to 183360 mg/l
[23] = system: Helicoverpa assulta; assay: Resistance factor, ratio of LD50 for sixth-instar larvae of Helicoverpa assulta YN2 to LD50 for sixth-instar larvae of Helicoverpa assulta at 1.8 to 183360 mg/l
[24] = system: Helicoverpa assulta; assay: Insecticidal activity against sixth-instar larvae of Helicoverpa assulta SD2 at 21 to 3390 mg/l after 48 hr by chi-squared analysis
[25] = system: Helicoverpa assulta; assay: Insecticidal activity against sixth-instar larvae of Helicoverpa assulta AH3 at 21 to 3390 mg/l after 48 hr by chi-squared analysis
[26] = system: Helicoverpa assulta; assay: Insecticidal activity against sixth-instar larvae of Helicoverpa assulta SD1 at 21 to 3390 mg/l after 48 hr by chi-squared analysis
[27] = system: Helicoverpa assulta; assay: Resistance factor, ratio of LD50 for sixth-instar larvae of Helicoverpa assulta GZ1 to LD50 for sixth-instar larvae of Helicoverpa assulta at 21 to 3390 mg/l
[28] = system: Helicoverpa assulta; assay: Insecticidal activity against sixth-instar larvae of Helicoverpa assulta HB2 at 21 to 3390 mg/l after 48 hr by chi-squared analysis
[29] = system: Helicoverpa assulta; assay: Insecticidal activity against sixth-instar larvae of Helicoverpa assulta GZ2 at 21 to 3390 mg/l after 48 hr by chi-squared analysis
[30] = system: Helicoverpa assulta; assay: Resistance factor, ratio of LD50 for sixth-instar larvae of Helicoverpa assulta GZ3 to LD50 for sixth-instar larvae of Helicoverpa assulta at 21 to 3390 mg/l
[31] = system: Helicoverpa assulta; assay: Resistance factor, ratio of LD50 for sixth-instar larvae of Helicoverpa assulta AH2 to LD50 for sixth-instar larvae of Helicoverpa assulta at 21 to 3390 mg/l
[32] = system: Helicoverpa assulta; assay: Insecticidal activity against sixth-instar larvae of Helicoverpa assulta GZ3 at 21 to 3390 mg/l after 48 hr by chi-squared analysis
[33] = system: Helicoverpa assulta; assay: Insecticidal activity against sixth-instar larvae of Helicoverpa assulta FJ2 at 21 to 3390 mg/l after 48 hr by chi-squared analysis
[34] = system: Helicoverpa assulta; assay: Insecticidal activity against sixth-instar larvae of Helicoverpa assulta GZ5 at 21 to 3390 mg/l after 48 hr by chi-squared analysis
[35] = system: Helicoverpa assulta; assay: Resistance factor, ratio of LD50 for sixth-instar larvae of Helicoverpa assulta YN2 to LD50 for sixth-instar larvae of Helicoverpa assulta at 21 to 3390 mg/l

**Q.** Which results are given for CCOP(=S)(OCC)O/N=C(\C#N)c1ccccc1 [PHOXIM]?
**A.** Ratio [1]: 50.8; Ratio [2]: 7.37; LD90 [3]: 107 µg/g; LD50 ([3]; Helicoverpa assulta, YN2, 48 h): 34.8 mg/kg; LD90 [4]: 181 µg/g; LD50 ([4]; Helicoverpa assulta, AH3, 48 h): 33.3 mg/kg; LD90 [5]: 72 µg/g; LD50 ([5]; Helicoverpa assulta, YN6, 48 h): 21.3 mg/kg; LD90 [6]: 94 µg/g; LD50 ([6]; Helicoverpa assulta, YN4, 48 h): 39.6 mg/kg; Ratio [7]: 9.17; LD90 [8]: 36.9 µg/g; LD50 ([8]; Helicoverpa assulta, FJ3, 48 h): 19 mg/kg; Ratio [9]: 9.41; LD90 [10]: 33.5 µg/g; LD50 ([10]; Helicoverpa assulta, AH2, 48 h): 16.7 mg/kg; Ratio [11]: 11; LD90 [12]: 5.54 µg/g; LD50 ([12]; Helicoverpa assulta, 48 h): 2.34 mg/kg

**Q.** With CC(C)C(C(=O)OC(C#N)c1cccc(Oc2ccccc2)c1)c1ccc(Cl)cc1 (centres undefined) [FENVALERATE] as the compound, how does the LD90 [13] read?
**A.** 1467 µg/g

**Q.** And the LD50 ([13]; Helicoverpa assulta, YN6, 48 h)?
**A.** 667 mg/kg

**Q.** What about the LD90 [14] of the same compound?
**A.** 7.34 µg/g

**Q.** What about the LD50 ([14]; Helicoverpa assulta, HB1, 48 h) of the same compound?
**A.** 0.944 mg/kg

**Q.** What about the Ratio [15] of the same compound?
**A.** 189

**Q.** And the Ratio [16]?
**A.** 9231

**Q.** And the Ratio [17]?
**A.** 1537

**Q.** And the Ratio [18]?
**A.** 8816

**Q.** What about the LD90 [19] of the same compound?
**A.** 833 µg/g

**Q.** And the LD50 ([19]; Helicoverpa assulta, AH1, 48 h)?
**A.** 333 mg/kg

**Q.** And the LD90 [20]?
**A.** 558 µg/g

**Q.** What about the LD50 ([20]; Helicoverpa assulta, GZ2, 48 h) of the same compound?
**A.** 169 mg/kg

**Q.** What about the Ratio [21] of the same compound?
**A.** 9.06

**Q.** And the Ratio [22]?
**A.** 1042

**Q.** What about the Ratio [23] of the same compound?
**A.** 1313

**Q.** With CNC(=O)ON=C(C)SC [METHOMYL] as the compound, how does the LD90 [24] read?
**A.** 41.8 µg/g

**Q.** What about the LD50 ([24]; Helicoverpa assulta, SD2, 48 h) of the same compound?
**A.** 8.92 mg/kg

**Q.** And the LD90 [25]?
**A.** 44.7 µg/g

**Q.** And the LD50 ([25]; Helicoverpa assulta, AH3, 48 h)?
**A.** 18.4 mg/kg

**Q.** And the LD90 [26]?
**A.** 19.5 µg/g

**Q.** And the LD50 ([26]; Helicoverpa assulta, SD1, 48 h)?
**A.** 5.68 mg/kg

**Q.** What about the Ratio [27] of the same compound?
**A.** 28.9

**Q.** And the LD90 [28]?
**A.** 108 µg/g

**Q.** What about the LD50 ([28]; Helicoverpa assulta, HB2, 48 h) of the same compound?
**A.** 15.8 mg/kg

**Q.** What about the LD90 [29] of the same compound?
**A.** 52.6 µg/g

**Q.** What about the LD50 ([29]; Helicoverpa assulta, GZ2, 48 h) of the same compound?
**A.** 20.1 mg/kg

**Q.** And the Ratio [30]?
**A.** 14.4

**Q.** And the Ratio [31]?
**A.** 15.3

**Q.** And the LD90 [32]?
**A.** 66.7 µg/g

**Q.** What about the LD50 ([32]; Helicoverpa assulta, GZ3, 48 h) of the same compound?
**A.** 20.8 mg/kg

**Q.** What about the LD90 [33] of the same compound?
**A.** 108 µg/g

**Q.** And the LD50 ([33]; Helicoverpa assulta, FJ2, 48 h)?
**A.** 28.7 mg/kg

**Q.** And the LD90 [34]?
**A.** 64.6 µg/g

**Q.** What about the LD50 ([34]; Helicoverpa assulta, GZ5, 48 h) of the same compound?
**A.** 21 mg/kg

**Q.** And the Ratio [35]?
**A.** 18.4
